The values that follow are results of earlier work, collected in US10231936B2, “Delayed release pharmaceutical formulations” (Euro-Celtique S.A., priority 2000, dated 2019).

Where a name gives a salt, the structure may show the parent alone. Read-outs that look alike come from different tables or passages of the source.

For data set [1] the following is noted: by mouth.
The conditions of data set [2]: conventional normal release dosage form.
For data set [3] the following is noted: spheroids in capsules.

`C[C@]12C=CC(=O)C=C1CC[C@@H]1[C@@H]2[C@@H](O)C[C@@]2(C)[C@H]1CC[C@]2(O)C(=O)COC(=O)c1cccc(S(=O)(=O)[O-])c1.[Na+]` [PSMB, Prednisolone sodium metasulphobenzoate]: the bioavailability result in data set [1] is listed as “very low bioavailability”.

`CN1CCN(C(=O)OC2c3nccnc3C(=O)N2c2ccc(Cl)cn2)CC1` (stereo not drawn) [Zopiclone]: in data set [2], the elimination half-life was approximately 2 h.

Regarding `CCCC1O[C@@H]2C[C@H]3[C@@H]4CCC5=CC(=O)C=C[C@]5(C)[C@H]4[C@@H](O)C[C@]3(C)[C@]2(C(=O)CO)O1` (stereo partly drawn) [Budesonide], the “total absorbed Budesonide absorbed in the ileum and ascending colon” value in data set [3] (fasting healthy subjects) is recorded as 68%; in data set [3] (fed healthy subjects), 69%.

With `CCC(=O)O[C@]1(C(=O)SCF)[C@H](C)C[C@H]2[C@@H]3C[C@H](F)C4=CC(=O)C=C[C@]4(C)[C@@]3(F)[C@@H](O)C[C@@]21C` [Fluticasone, Fluticasone Propionate], in data set [1], the bioavailability entry is “low bioavailability”.

For `Cc1ccc(-c2nc3ccc(C)cn3c2CC(=O)N(C)C)cc1` [Zolpidem tartrate], the elimination half-life in data set [2] was approximately 2 h.
